Data as given in US8592451B2, “Reversible nondepolarizing neuromuscular blockade agents and methods for their use” (Cornell University, priority 2009, dated 2013).

How the values were obtained:
[1] = L-cysteine adduction kinetics in vitro (HPLC); assay type: physicochemical; conditions: pH 7.4, 37° C.; for NMBA peak area / [NMBA] remaining / ln* = ln (([NMBA]t[L-cysteine]t=0)/([NMBA]t=0[L-cysteine]t)): CW 011 1000 μg/mL + 1.05 equiv. L-cysteine
Method: In a second experiment, to evaluate degradation in the presence of L-cysteine, buffered solutions (pH 7.4) of gantacurium, CW 002 or CW 011 were freshly prepared at 37° C. to give experimental concentrations of 1000 μg/mL (CW 002 and CW 011) and 200 μg/mL (gantacurium), after addition to and mixing with a 5% Molar excess of L-cysteine at time=0.
The concentration of neuromuscular blocking agent/parent compound remaining at specified time points after mixing was determined by high performance liquid chromatography. The concentration of blocking agent at each time point was determined from a separately prepared reaction mixture, due to the rapid rate of L-cysteine adduction. The reaction rate constant for the second order reaction of each neuromuscular blockade agent (NMBA) with L-cysteine was derived by plotting the natural log of ([NMBA]t[L-cysteine]t=0/[NMBA]t=0[L-cysteine]t) vs. time.
Concentrations selected were 200, 100 and 50 μg/ml which are approximately proportional to the relative potencies (ED 95) of gantacurium, CW 002 and CW 011 respectively. A degradation (adduction) pathway in the presence of L-cysteine for each of the three compounds was proposed.
The reaction of L-cysteine with CW 002, CW 011 or gantacurium is first order in the case of both the neuromuscular blockade agent (NMBA) and L-cysteine, represented by the rate equation (1). d[Adduct]/dt=−d[NMBA]/dt=ka[NMBA][L-cysteine] (1)
Calculation of the L-cysteine adduction half time requires experimental derivation of the reaction rate constant, ka, for each compound. The initial concentrations of NMBA and L-cysteine are unequal in the experiments conducted for this study, thus integration of equation 1 gives equation 2, where [NMBA]0 is the NMBA concentration at time equals 0 and [NMBA]t is the NMBA concentration at a time point, t.
[formula] A plot of the ln(([NMBA]t [L-cysteine]0)/([NMBA]0 [L-cysteine]t)) versus time (ln* vs. t) gives a line, with slope equal to ka([NMBA]0−[L-cysteine]0). An adduction reaction half time can be calculated by solving for ka to be used in equation 3.
NMBA standard solutions were prepared by a method similar to that used to prepare hydrolysis standards. The standards were prepared at 1000 μg/mL for CW 002 and CW 011 and 200 μg/mL for gantacurium.
Solutions used for determination of NMBA concentration at the reported times for CW 002 and CW 011 were prepared as follows: L-cysteine hydrochloride monohydrate was charged to a volumetric flask in de-ionized water. A 5 mL aliquot of the L-cysteine solution (1.05 equiv. L-cysteine with respect to NMBA) was transferred by volumetric pipette to a flask held at 37.0±0.3° C. CW 002 or CW 011 was then charged to a separate 25 mL volumetric flask and diluted to volume with pH 7.4 phosphate buffer at 37.0° C. The NMBA solution was then immediately transferred to the flask containing L-cysteine to give an initial NMBA concentration of 1000 μg/mL. Solutions used for determination of gantacurium concentration versus time were prepared in a similar manner to give an initial concentration of 200 μg/mL. T=0 was defined as the time of addition of NMBA solution to L-cysteine solution. The times listed in the results table show the point of HPLC sample injection following mixing of L-cysteine and NMBA at time=0 (Table 1, below).
Rate constants were calculated using equation (3) and the slope of the trend line derived from each data set. The strong linear correlation of the data within each set supports the use of second order kinetics for analysis of the cysteine adduction reactions.
Reaction half times were calculated using equation 4 and the experimentally determined rate constants. The initial NMBA concentrations were chosen to reflect the relative potency observed in vivo.

[2] = tested on: twitch of the extensor digitorum; experiment: Reversal of neuromuscular blockade by L-cysteine or neostigmine in anesthetized rhesus monkeys; assay type: in vivo, rhesus monkeys (Macaca mulatta)
Method: A control dose of 0.15 mg/kg CW 002 was allowed to recover spontaneously to TOF 110-120%. A second dose was given 60 minutes later, followed one minute afterwards by either neostigmine (0.05 mg/kg+atropine 0.05 mg/kg) or L-cysteine (10, 20, 30 or 50 mg/kg). Total duration and 5-95% recovery intervals were compared during spontaneous recovery vs. antagonism by L-cysteine or reversal by neostigmine.
This series of paired comparisons was designed to generate dose-response data comparing spontaneous recovery of high doses of CW 011 (from 4 to 64× ED95) versus immediate antagonism at +1 min by an optimal dose of L-cysteine (50 mg/kg), previously determined during studies of immediate antagonism of CW 002. This experiment was done to explore the limits of chemical antagonism by L-cysteine of these olefinic diester neuromuscular blocking drugs, using CW 011 as a typical example with an intermediate duration of action. Five groups of animals first received a control dose of CW 011 at 4, 8, 16, 32 or 64× ED 95 (0.1 to 1.6 mg/kg). Sixty minutes after spontaneous recovery of the control dose to TOF 110-120%, the same dose was repeated, followed 1 min later by L-cysteine (50 mg/kg). Total duration of action and 5-95% recovery interval were compared during spontaneous recovery and following antagonism by L-cysteine
The reversal of neuromuscular blockade by cysteine (5-50 mg/kg i.v.) was studied. Reversal was tested as follows: full paralysis was induced by injection of a dose of approximately 2-6× ED 95 of the compound in question. After spontaneous recovery of this dose, a second identical dose was given 15-30 min later. Cysteine was then given at +1 min after injection of the neuromuscular blocking drug at a point where no twitch was apparent (“immediate reversal”) or at the beginning of recovery from neuromuscular blockade at two percent twitch height (“classical reversal”). Comparisons were made among compounds with respect to rapidity and ease of cysteine reversal, by comparing 5-95% recovery times, and total durations of action (injection to 95% twitch recovery). Spontaneous recovery was compared with cysteine-accelerated recovery. […]

COc1ccc(C[C@@H]2c3cc(OC)c(OC)cc3CC[N@@+]2(C)CCCOC(=O)/C=C\C(=O)OCCC[N@+]2(C)CCc3cc(OC)c(OC)cc3[C@H]2Cc2cc(OC)c(OC)c(OC)c2)cc1OC [CW 011]
NMBA peak area ([1]; Trial 1, 123 Sec): 2587.0 mAU's
[NMBA] remaining ([1]; Trial 1, 123 Sec): 228 µM
ln* = ln (([NMBA]t[L-cysteine]t=0)/([NMBA]t=0[L-cysteine]t)) ([1]; Trial 1, 123 Sec): −0.248
NMBA peak area ([1]; Trial 2, 132 Sec): 2500.5 mAU's
[NMBA] remaining ([1]; Trial 2, 132 Sec): 221 µM
ln* = ln (([NMBA]t[L-cysteine]t=0)/([NMBA]t=0[L-cysteine]t)) ([1]; Trial 2, 132 Sec): −0.256
NMBA peak area ([1]; Trial 3, 143 Sec): 2293.0 mAU's
[NMBA] remaining ([1]; Trial 3, 143 Sec): 202 µM
ln* = ln (([NMBA]t[L-cysteine]t=0)/([NMBA]t=0[L-cysteine]t)) ([1]; Trial 3, 143 Sec): −0.284
NMBA peak area ([1]; Trial 4, 182 Sec): 1765.4 mAU's
[NMBA] remaining ([1]; Trial 4, 182 Sec): 155 µM
ln* = ln (([NMBA]t[L-cysteine]t=0)/([NMBA]t=0[L-cysteine]t)) ([1]; Trial 4, 182 Sec): −0.378
Plot Slope (ln* vs. time) ([1]; L-cysteine adduction, data of Table 1): −0.0023
ka, second order rate constant of L-cysteine adduction [1]: 24.7 M⁻¹ s⁻¹
half-life at 50 μg/ml ([1]; pH 7.4 phosphate buffer with L-cysteine, calculated at [NMBA]0 0.0000493 M (50 μg/ml), read-out: L-cysteine adduction reaction half time t1/2): 13.7 min
time to reversal of blockade with cysteine (FIG. 2B) ([2]; CW 011, all cysteine concentrations tested (10 mg/kg to 50 mg/kg as worded elsewhere in the source)): less than 6 minutes
time from cysteine administration to beginning of reversal (FIG. 2B) ([2]; CW 011, higher cysteine doses): 2 to 3 min
time to spontaneous reversal of blockade (FIG. 2) ([2]; CW 011, no reversal agent): more than 12 minutes
reversibility of neuromuscular blockade by thiol compounds ([2]; cysteine (L or D) or glutathione): reversible
effect of neostigmine given immediately after the blocking drug ([2]; immediate reversal): ineffective
spontaneous reversal rate (FIG. 2A) ([2]; increasing doses of CW 011 (4 to 64× ED95), no reversal agent): decreases with increasing CW 011 dose
classical antagonism of neuromuscular blockade by neostigmine ([2]; neostigmine given at beginning of spontaneous recovery, e.g. at 2% twitch height): showed antagonism
